From BindingDB's records for doi:10.1021/bi1006354 (Beactica, 2010) come the findings set out here.

pKd: −log10 of the molar value. Where “and” joins values, the source holds several entries; their conditions need not be identical. Equal values may be shown once.

Acetylcholine-binding protein, sequence (P58154 whole entry): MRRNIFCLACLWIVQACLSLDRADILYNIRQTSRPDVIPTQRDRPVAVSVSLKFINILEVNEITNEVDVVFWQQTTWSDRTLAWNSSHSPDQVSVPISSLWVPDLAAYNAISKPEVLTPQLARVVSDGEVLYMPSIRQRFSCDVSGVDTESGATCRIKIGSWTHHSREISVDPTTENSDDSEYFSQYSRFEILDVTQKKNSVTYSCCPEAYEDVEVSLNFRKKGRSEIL

The target in the test is Acetylcholine-binding protein (Lymnaea stagnalis, UniProt P58154). As to the kind of experiment: Interaction Assay. To be noted: pH 7.4; 25 °C. The source says:
Interaction assay using AChBP.
For `CC(=O)OCC[N+](C)(C)C` [2-acetoxyethyl(trimethyl)ammonium;perchlorate], the pKd (commonly the Kd on a negative log10 scale, so that one unit is a factor of ten) was 6.34 and 5.41. On to `N[C@@H]1C2CCN(CC2)C1Cc1cccnc1` (stereo not given in full) [Quinuclidine analogue, 2], for which the pKd is 6.46.

For the compound `CN(C)CCc1cccnc1` [Quinuclidine analogue, 1], the pKd is 5.37. `O=C(N[C@@H]1C2CCN(CC2)C1Cc1cccnc1)c1cc2ccccc2o1` (stereo not given in full) [Quinuclidine analogue, 5]: the pKd was 7.89. In the case of `O=C(N[C@@H]1C2CCN(CC2)C1Cc1cccnc1)c1ccccc1` (stereo not given in full) [Quinuclidine analogue, 3], the pKd was 6.85.
